Reference: PubChem BioAssay (NCI)
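The compound was tested at five concentrations on cells cultured in 96-well plates, with a 48-hour exposure period. TGI denotes the concentration required for complete inhibition of growth.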

Experiments:
Assay in all cases: NCI anticancer screen, dose series, 48 h
786-0 renal = test system: 786-0 renal
A498 renal = test system: A498 renal
A549 NSCLC = test system: A549 NSCLC
ACHN renal = test system: ACHN renal
CCRF-CEM leukemia = test system: CCRF-CEM leukemia
COLO 205 colon = test system: COLO 205 colon
DLD-1 colon = test system: DLD-1 colon
DMS 114 small cell lung = test system: DMS 114 small cell lung
DMS 273 small cell lung = test system: DMS 273 small cell lung
EKVX NSCLC = test system: EKVX NSCLC
HCC-2998 colon = test system: HCC-2998 colon
HCT-116 colon = test system: HCT-116 colon
HL-60(TB) leukemia = test system: HL-60(TB) leukemia
HOP-18 NSCLC = test system: HOP-18 NSCLC
HOP-62 NSCLC = test system: HOP-62 NSCLC
HOP-92 NSCLC = test system: HOP-92 NSCLC
HT29 colon = test system: HT29 colon
IGROV1 ovarian = test system: IGROV1 ovarian
K-562 leukemia = test system: K-562 leukemia
KM12 colon = test system: KM12 colon
KM20L2 colon = test system: KM20L2 colon
LOX IMVI melanoma = test system: LOX IMVI melanoma
LXFL 529 NSCLC = test system: LXFL 529 NSCLC
M14 melanoma = test system: M14 melanoma
M19-MEL melanoma = test system: M19-MEL melanoma
MALME-3M melanoma = test system: MALME-3M melanoma
MOLT-4 leukemia = test system: MOLT-4 leukemia
NCI-H226 lung = test system: NCI-H226 lung
NCI-H23 lung = test system: NCI-H23 lung
NCI-H460 lung = test system: NCI-H460 lung
OVCAR-3 ovarian = test system: OVCAR-3 ovarian
OVCAR-4 ovarian = test system: OVCAR-4 ovarian
OVCAR-8 ovarian = test system: OVCAR-8 ovarian
RPMI-8226 leukemia = test system: RPMI-8226 leukemia
RXF 393 renal = test system: RXF 393 renal
SF-295 CNS = test system: SF-295 CNS
SF-539 CNS = test system: SF-539 CNS
SK-MEL-2 melanoma = test system: SK-MEL-2 melanoma
SK-MEL-28 melanoma = test system: SK-MEL-28 melanoma
SK-MEL-5 melanoma = test system: SK-MEL-5 melanoma
SK-OV-3 ovarian = test system: SK-OV-3 ovarian
SNB-19 CNS = test system: SNB-19 CNS
SNB-75 CNS = test system: SNB-75 CNS
SNB-78 CNS = test system: SNB-78 CNS
SW-620 colon = test system: SW-620 colon
TK-10 renal = test system: TK-10 renal
U251 CNS = test system: U251 CNS
UACC-257 melanoma = test system: UACC-257 melanoma
UACC-62 melanoma = test system: UACC-62 melanoma
UO-31 renal = test system: UO-31 renal
CAKI-1 renal = test system: CAKI-1 renal
HCT-15 colon = test system: HCT-15 colon
NCI-H522 lung = test system: NCI-H522 lung
OVCAR-5 ovarian = test system: OVCAR-5 ovarian
SF-268 CNS = test system: SF-268 CNS
SN12C renal = test system: SN12C renal
SR leukemia = test system: SR leukemia

In the case of `O=C(c1ccccc1)N1CCN2CCN=C(c3ccccc3)C21c1ccccc1` (stereo not given), the TGI (786-0 renal) is reported as over 100 µM, the TGI (A498 renal) is reported as over 100 µM and the TGI (A549 NSCLC) is reported as over 100 µM. For the same molecule, the TGI (ACHN renal) was over 100 µM, the TGI (CCRF-CEM leukemia) was over 100 µM and the TGI (COLO 205 colon) was over 100 µM. It also gave a TGI (DLD-1 colon) of over 100 µM, a TGI (DMS 114 small cell lung) of over 100 µM and a TGI (DMS 273 small cell lung) of over 100 µM. For the same molecule, the TGI (EKVX NSCLC) was over 100 µM, the TGI (HCC-2998 colon) was over 100 µM and the TGI (HCT-116 colon) was over 100 µM. It also gave a TGI (HL-60(TB) leukemia) of over 100 µM, a TGI (HOP-18 NSCLC) of over 100 µM and a TGI (HOP-62 NSCLC) of over 100 µM. It also gave a TGI (HOP-92 NSCLC) of over 100 µM, a TGI (HT29 colon) of over 100 µM and a TGI (IGROV1 ovarian) of over 100 µM. For the same molecule, the TGI (K-562 leukemia) was over 100 µM, the TGI (KM12 colon) was over 100 µM and the TGI (KM20L2 colon) was over 100 µM. The TGI (LOX IMVI melanoma) was over 100 µM, the TGI (LXFL 529 NSCLC) was over 100 µM and the TGI (M14 melanoma) was over 100 µM. It also gave a TGI (M19-MEL melanoma) of over 100 µM, a TGI (MALME-3M melanoma) of over 100 µM and a TGI (MOLT-4 leukemia) of over 100 µM. It also gave a TGI (NCI-H226 lung) of over 100 µM, a TGI (NCI-H23 lung) of over 100 µM and a TGI (NCI-H460 lung) of over 100 µM. It also gave a TGI (OVCAR-3 ovarian) of over 100 µM, a TGI (OVCAR-4 ovarian) of over 100 µM and a TGI (OVCAR-8 ovarian) of over 100 µM. It also gave a TGI (RPMI-8226 leukemia) of over 100 µM, a TGI (RXF 393 renal) of over 100 µM and a TGI (SF-295 CNS) of over 100 µM. It also gave a TGI (SF-539 CNS) of over 100 µM, a TGI (SK-MEL-2 melanoma) of over 100 µM and a TGI (SK-MEL-28 melanoma) of over 100 µM. The TGI (SK-MEL-5 melanoma) was over 100 µM, the TGI (SK-OV-3 ovarian) was over 100 µM and the TGI (SNB-19 CNS) was over 100 µM. For the same molecule, the TGI (SNB-75 CNS) was over 100 µM, the TGI (SNB-78 CNS) was over 100 µM and the TGI (SW-620 colon) was over 100 µM. The TGI (TK-10 renal) was over 100 µM, the TGI (U251 CNS) was over 100 µM and the TGI (UACC-257 melanoma) was over 100 µM. The TGI (UACC-62 melanoma) was over 100 µM and the TGI (UO-31 renal) was over 100 µM.

For `CCCCCCCCCCCCCCCC/C(C(=O)OC)=C(/O)C(=O)OCC`, the TGI (786-0 renal) was over 100 µM, the TGI (A498 renal) was over 100 µM and the TGI (A549 NSCLC) was over 100 µM. It also gave a TGI (ACHN renal) of over 100 µM, a TGI (CAKI-1 renal) of over 100 µM and a TGI (CCRF-CEM leukemia) of over 100 µM. For the same molecule, the TGI (COLO 205 colon) was over 100 µM, the TGI (DLD-1 colon) was over 100 µM and the TGI (DMS 114 small cell lung) was over 100 µM. The TGI (DMS 273 small cell lung) was over 100 µM, the TGI (HCC-2998 colon) was over 100 µM and the TGI (HCT-116 colon) was over 100 µM. It also gave a TGI (HCT-15 colon) of over 100 µM, a TGI (HL-60(TB) leukemia) of over 100 µM and a TGI (HOP-18 NSCLC) of over 100 µM. For the same molecule, the TGI (HOP-62 NSCLC) was over 100 µM, the TGI (HOP-92 NSCLC) was 84.9 µM and the TGI (HT29 colon) was over 100 µM. For the same molecule, the TGI (IGROV1 ovarian) was over 100 µM, the TGI (K-562 leukemia) was over 100 µM and the TGI (KM12 colon) was over 100 µM. For the same molecule, the TGI (KM20L2 colon) was over 100 µM, the TGI (LOX IMVI melanoma) was over 100 µM and the TGI (LXFL 529 NSCLC) was over 100 µM. It also gave a TGI (M14 melanoma) of over 100 µM, a TGI (M19-MEL melanoma) of over 100 µM and a TGI (MALME-3M melanoma) of over 100 µM. The TGI (MOLT-4 leukemia) was over 100 µM, the TGI (NCI-H226 lung) was over 100 µM and the TGI (NCI-H23 lung) was over 100 µM. For the same molecule, the TGI (NCI-H460 lung) was over 100 µM, the TGI (NCI-H522 lung) was over 100 µM and the TGI (OVCAR-3 ovarian) was over 100 µM. For the same molecule, the TGI (OVCAR-4 ovarian) was over 100 µM, the TGI (OVCAR-5 ovarian) was over 100 µM and the TGI (OVCAR-8 ovarian) was over 100 µM. It also gave a TGI (RPMI-8226 leukemia) of over 100 µM, a TGI (RXF 393 renal) of over 100 µM and a TGI (SF-268 CNS) of over 100 µM. It also gave a TGI (SF-295 CNS) of over 100 µM, a TGI (SF-539 CNS) of over 100 µM and a TGI (SK-MEL-2 melanoma) of over 100 µM. For the same molecule, the TGI (SK-MEL-28 melanoma) was over 100 µM, the TGI (SK-MEL-5 melanoma) was over 100 µM and the TGI (SK-OV-3 ovarian) was over 100 µM. For the same molecule, the TGI (SN12C renal) was over 100 µM, the TGI (SNB-19 CNS) was over 100 µM and the TGI (SNB-75 CNS) was over 100 µM. It also gave a TGI (SNB-78 CNS) of over 100 µM, a TGI (SR leukemia) of over 100 µM and a TGI (SW-620 colon) of over 100 µM. For the same molecule, the TGI (TK-10 renal) was over 100 µM, the TGI (U251 CNS) was over 100 µM and the TGI (UACC-257 melanoma) was over 100 µM. The TGI (UACC-62 melanoma) was over 100 µM and the TGI (UO-31 renal) was over 100 µM.

For `C=CCOC(C)n1c(C)cc(=O)n(C(C)OCC=C)c1=O` (stereo not given), the TGI (786-0 renal) was over 100 µM, the TGI (A498 renal) was over 100 µM and the TGI (A549 NSCLC) was over 100 µM. For the same molecule, the TGI (ACHN renal) was over 100 µM, the TGI (CCRF-CEM leukemia) was over 100 µM and the TGI (COLO 205 colon) was over 100 µM. It also gave a TGI (DLD-1 colon) of over 100 µM, a TGI (DMS 114 small cell lung) of over 100 µM and a TGI (DMS 273 small cell lung) of over 100 µM. It also gave a TGI (EKVX NSCLC) of over 100 µM, a TGI (HCC-2998 colon) of over 100 µM and a TGI (HCT-116 colon) of over 100 µM. It also gave a TGI (HCT-15 colon) of over 100 µM, a TGI (HL-60(TB) leukemia) of over 100 µM and a TGI (HOP-18 NSCLC) of over 100 µM. For the same molecule, the TGI (HOP-62 NSCLC) was over 100 µM, the TGI (HOP-92 NSCLC) was over 100 µM and the TGI (HT29 colon) was over 100 µM. For the same molecule, the TGI (IGROV1 ovarian) was over 100 µM, the TGI (K-562 leukemia) was over 100 µM and the TGI (KM20L2 colon) was over 100 µM. The TGI (LXFL 529 NSCLC) was over 100 µM, the TGI (M14 melanoma) was over 100 µM and the TGI (M19-MEL melanoma) was over 100 µM. The TGI (MALME-3M melanoma) was over 100 µM, the TGI (MOLT-4 leukemia) was over 100 µM and the TGI (NCI-H226 lung) was over 100 µM. The TGI (NCI-H23 lung) was over 100 µM, the TGI (NCI-H522 lung) was over 100 µM and the TGI (OVCAR-4 ovarian) was over 100 µM. For the same molecule, the TGI (OVCAR-8 ovarian) was over 100 µM, the TGI (RPMI-8226 leukemia) was over 100 µM and the TGI (RXF 393 renal) was over 100 µM. It also gave a TGI (SF-268 CNS) of over 100 µM, a TGI (SF-295 CNS) of over 100 µM and a TGI (SF-539 CNS) of over 100 µM. For the same molecule, the TGI (SK-MEL-28 melanoma) was over 100 µM, the TGI (SK-MEL-5 melanoma) was over 100 µM and the TGI (SK-OV-3 ovarian) was over 100 µM. It also gave a TGI (SN12C renal) of over 100 µM, a TGI (SNB-19 CNS) of over 100 µM and a TGI (SNB-75 CNS) of over 100 µM. It also gave a TGI (SNB-78 CNS) of over 100 µM, a TGI (SR leukemia) of over 100 µM and a TGI (SW-620 colon) of over 100 µM. The TGI (U251 CNS) was over 100 µM, the TGI (UACC-257 melanoma) was over 100 µM and the TGI (UACC-62 melanoma) was over 100 µM. For the same molecule, the TGI (UO-31 renal) was over 100 µM.
